# From PubChem BioAssay AID720570 (Broad Institute, 2013)
# Values joined by “and” are separate entries in the source; they are usually repeats but may differ in a detail not shown here. Equal values may be shown once. Active and inactive are the calls of the source.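 The calls were made as follows: active = cell-killing curve crosses a set limit at a concentration no more than twice the top valid dose; inconclusive = flat curve with a 30 to 70% loss, or a poor fit; inactive = signal rising instead of falling, and the rest.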
# Tested on: TC71 Ewing sarcoma viability, CellTiter-Glo ATP, 72 h
# Test: TC71 Ewing sarcoma cell killing, confirmation, luminescence, cherry-picked samples, retest (AID 720570)
row,SMILES,AC35
1,C[C@@H]1CN([C@@H](C)CO)C(=O)c2cc(NS(=O)(=O)c3ccc(F)cc3)ccc2O[C@@H]1CN(C)Cc1ccc(C(=O)Nc2ccccc2N)cc1,17.5 µM
2,C[C@@H]1CN([C@H](C)CO)C(=O)c2cc(NC(=O)c3ccccc3)ccc2O[C@@H](C)CCCCO[C@H]1CN(C)C(=O)Nc1cccc2ccccc12,1.58 µM
3,C=C1C(=O)OC2C1CCC(C)C1(O)C=CC(=O)C21C (stereo not drawn),12.6 µM
4,C[C@H](CO)N1C[C@H](C)[C@H](CN(C)Cc2ccc(Oc3ccccc3)cc2)Oc2ccc(NC(=O)Cn3cnnn3)cc2CC1=O,26.9 µM
5,Cc1[nH][nH]c(=O)c1C(c1c(C)[nH][nH]c1=O)c1cn(Cc2ccc(Cl)c(Cl)c2)c2ccccc12,11.3 µM
6,Cn1ccc2cc(-c3ccc4ncnc(NCc5cccs5)c4c3)ccc21,5.67 µM
7,CC(C)CC#Cc1ccc([C@@H]2[C@@H](CO)N3CCCCN(S(=O)(=O)c4ccc(F)cc4)C[C@H]23)cc1,13.2 µM
8,C[C@H](CO)N1C[C@H](C)[C@H](CN(C)CC2CCCCC2)Oc2ccc(NC(=O)CCCCCC(=O)Nc3ccccc3N)cc2CC1=O,18.9 µM
9,Cc1cc(C)cc(N2C(=O)NC(=O)/C(=C\C=C\c3ccco3)C2=O)c1,11.3 µM
10,CC(=O)Oc1ccc(-c2ccc(C(=O)Nc3cccc(S(=O)(=O)N4CCOCC4)c3)cc2)cc1,3.71 µM
11,Cc1c(Cl)cccc1NC(=O)CCC(=O)N/N=C/c1ccc[nH]1,4.44 µM
12,COc1ccc(OC)c(/C=C/c2ccnc3ccccc23)c1,2.31 µM
13,N/C(=C\C(=O)c1cc(Cl)ccc1O)C(Cl)(Cl)Cl,9.12 µM
14,CCc1cccc2c(C(=O)CN3C(=O)NC4(CCCCC4)C3=O)c[nH]c12,4.29 µM
15,CC(C)(C)c1ccc(Oc2ccc(N)cn2)cc1,4.73 µM
16,C[C@@H]1CN([C@@H](C)CO)C(=O)c2cc(NS(=O)(=O)c3ccccc3)ccc2O[C@@H]1CN(C)Cc1ccc(C(=O)Nc2ccccc2N)cc1,10.2 µM
17,C[C@@H]1CN([C@@H](C)CO)C(=O)Cc2cc(NC(=O)C3CCCCC3)ccc2O[C@H]1CN(C)Cc1ccc(C(=O)Nc2ccccc2N)cc1,15.6 µM
18,O=C1c2ccccc2C(=O)c2cc(N3CCCCC3)ccc21,23.3 µM
19,O=c1cc(-c2ccccc2)oc2ccc3ccccc3c12,10.7 µM
20,COc1ccc(/C=C/C(=O)c2ccc(C(=O)/C=C/c3ccc(OC)c(OC)c3)cc2)cc1OC,20.4 µM
21,O=c1[nH]c(=O)n([C@H]2C[C@H](O)[C@@H](CO)O2)cc1F,0.282 µM
22,N#CC1C=Cc2c(ccc3ccccc23)N1C(=O)c1ccccc1 (stereo not drawn),1.45 µM

row,SMILES,AC35
1,C[C@]12CC[C@H](O)C[C@H]1CC[C@@H]1[C@@H]2C[C@@H](O)[C@]2(C)[C@@H](C3=CC(=O)OC3)CC[C@]12O,3.35 µM
2,C[C@H]1CN([C@@H](C)CO)C(=O)Cc2cc(NC(=O)CCCCCC(=O)Nc3ccccc3N)ccc2O[C@H]1CN(C)Cc1ccc(C(F)(F)F)cc1,11.6 µM
3,C[C@@H]1CN([C@@H](C)CO)C(=O)Cc2cc(N(C)C)ccc2O[C@H]1CN(C)Cc1ccc(C(=O)Nc2ccccc2N)cc1,13.1 µM
4,Cc1ccccc1NC(=O)C(=Cc1ccc(C(=O)O)cc1)C(=O)Nc1ccccc1C,6.67 µM
5,C(=Cc1c[nH]c2ccccc12)c1ccc2ccccc2n1,3.86 µM
6,CC(=O)N1CCCC(c2cc(C(=O)Nc3ccccc3)no2)C1 (stereo not drawn),12.7 µM
7,C[C@@H]1CN([C@@H](C)CO)C(=O)c2cc(N(C)C)ccc2O[C@H]1CN(C)Cc1ccc(C(=O)Nc2ccccc2N)cc1,22 µM
8,C[C@@H]1CN([C@@H](C)CO)C(=O)c2cc(NC(=O)c3ccccc3)ccc2O[C@@H](C)CCCCO[C@H]1CN(C)C(=O)Nc1cccc2ccccc12,0.679 µM
9,Nc1ccn([C@@H]2O[C@H](CO)[C@@H](O)C2O)c(=O)n1 (stereo partly drawn),1.22 µM
10,C(=N\Nc1nc2ccccc2[nH]1)/c1ccccn1,4.84 µM
11,O=C(C[C@H]1C[C@H]2c3cc(NS(=O)(=O)c4ccc(F)cc4)ccc3O[C@H]2[C@H](CO)O1)NCc1ccc(Oc2ccccc2)cc1,10.8 µM
12,CC(C)(C)[S@](=O)N1Cc2cc(C(=O)NCC(F)(F)F)nc(-c3cccc(-c4cccc(F)c4)c3)c2[C@@H]1CCO,16.5 µM
13,Cc1ccc(OCCNC(=O)c2cccc(S(=O)(=O)NCc3ccccc3)c2)cc1,6.35 µM
14,CC12CCC3C(CCC4(O)CC(O)CCC34C=NO)C1(O)CCC2C1=COC(=O)C1 (stereo not drawn),0.97 µM
15,COc1cc(-c2cnc3c(NC=O)cc(-c4cccc(NC(C)=O)c4)cn23)cc(OC)c1OC,0.385 µM
16,O=C(Nc1ccccc1F)N1CCCCN2[C@H](CO)[C@H](c3ccc(/C=C/c4ccccc4)cc3)[C@H]2C1,10.6 µM
17,CCCc1cc(=O)oc2c3c(c4c(c12)OC(C)(C)C=C4)OC(C)C(C)C3O (stereo not drawn),22.6 µM
18,CC1(C(=O)NCc2ccco2)Cc2c(-c3cccc(C(N)=O)c3)ccnc2O1 (stereo not drawn),7.99 µM
19,COc1ccc(CN(C)c2ncnc3sccc23)c(OC)c1OC,16.2 µM
20,C[C@H]1CN([C@@H](C)CO)S(=O)(=O)c2ccc(C#Cc3ccncc3)cc2O[C@@H]1CN(C)C(=O)Nc1ccc2c(c1)OCO2,4.14 µM
21,C[C@@H]1CCCCO[C@H](CN(C)Cc2ccc(C(=O)Nc3ccccc3N)cc2)[C@@H](C)CN([C@H](C)CO)C(=O)c2cc(NS(=O)(=O)c3ccc(Cl)cc3)ccc2O1,16.2 µM
22,CC(=NNc1cc(C)c2ccccc2n1)c1ccccn1,1.38 µM

row,SMILES,AC35
1,CC(C)(C)C(=O)Cn1ncc(Cl)c(Cl)c1=O,7.6 µM
2,Cc1ccc(C)c(S(=O)(=O)N2CCN(c3ncnc4sccc34)CC2)c1,6.72 µM
3,O=C1NC2C(=CC(O)C(O)C2O)c2cc3c(cc21)OCO3 (stereo not drawn),3.67 µM
4,N#CC(=C1C=CC(=NO)C(Cl)=C1)c1ccccc1,6.4 µM
5,C[C@H]1CN([C@@H](C)CO)S(=O)(=O)c2ccc(C#CC(C)(C)O)cc2O[C@@H]1CN(C)Cc1ccc(-c2ccccc2)cc1,0.414 µM
6,O=C1/C(=C\c2ccccc2)CN(C(=O)CCN2CCCCC2)C/C1=C/c1ccccc1,4.22 µM
7,CCCCCCCCCCCCCCCCCCNc1ccn(C2OC(COP(=O)(O)OCC3OC(n4cc(F)c(=O)[nH]c4=O)CC3O)C(O)C2O)c(=O)n1 (stereo not drawn),2.77 µM
8,C[C@H](O)C#Cc1ccc2c(c1)O[C@@H](CN(C)Cc1ccc(-c3ccccc3)cc1)[C@H](C)CN([C@@H](C)CO)S2(=O)=O,3.82 µM and 4.62 µM
9,CN(C)c1ccc(N=Nc2nc3ccccc3n2C)cc1,13.6 µM
10,O=C(NCc1cccnc1)C1Cc2c(-c3ccc(Cl)cc3)ccnc2O1 (stereo not drawn),13.2 µM
11,C=C1C(=O)[C@@]23[C@H](O)C[C@@H]4C(C)(C)CC[C@H](O)[C@@]4(C)[C@@H]2CC[C@@H]1[C@H]3O,9.15 µM
12,CCCC[C@@H]1Cc2[nH][nH]c(=O)c2[C@H](c2ccc3ccccc3c2)O1,15.2 µM
13,COc1ccc(NC(=O)N2CCCCN3[C@@H](CO)[C@H](c4ccc(C5=CCCCC5)cc4)[C@@H]3C2)cc1,23.3 µM
14,C[C@H](CO)N1C[C@H](C)[C@H](CN(C)Cc2ccc(C(=O)Nc3ccccc3N)cc2)Oc2ccc(N(C)C)cc2CC1=O,6.82 µM
15,CCCCc1c(Cc2ccccc2)ncn1CCc1ccccc1OC,14.4 µM
16,COc1ccccc1NC(=O)N1[C@@H]2CNC[C@H]1[C@@H]2c1ccc(-c2ccc(C#N)cc2)cc1,> 23.5 µM (inactive)
17,CCCCCCCCn1c2c(c(=N)c3c1CCC3)CCCC2,4.88 µM
18,COC(=O)CC1(C(=O)OC)Oc2ccc(Br)cc2C(=O)N1c1cccc(Cl)c1Cl (stereo not drawn),24.9 µM
19,C[C@H]1CN([C@@H](C)CO)C(=O)Cc2cc(NC(=O)CCCCCC(=O)Nc3ccccc3N)ccc2O[C@H]1CN(C)Cc1ccc(Cl)c(Cl)c1,14.1 µM
20,COc1ccc(OC)c(-c2nnc3n2N=C(c2ccc(OC)c(OC4CCOC4)c2)CS3)c1 (stereo not drawn),3.98 µM
21,NC(Cc1ccc(C(F)(F)F)cc1)c1csc(NC(=O)Nc2ccccc2Cc2ccccc2)n1 (stereo not drawn),12.7 µM
22,O=C1NC(=O)N(Cc2ccc(F)cc2)C(=O)/C1=C\C=C\c1ccco1,9.09 µM

row,SMILES,AC35
1,Cc1ccc(C(C)C)c(OCc2ccc(C(=O)N/N=C/c3ccc(O)cc3O)cc2)c1,2.01 µM
2,Nc1nc(=S)c2[nH]cnc2[nH]1,1.54 µM
3,O=C(N/N=C/c1cnc(N2CCCCC2)s1)c1ccc(C(F)(F)F)cc1,20.9 µM
4,C[C@@H]1CN([C@@H](C)CO)C(=O)c2cc(NC(=O)Nc3ccccc3)ccc2O[C@@H]1CN(C)Cc1ccc(C(=O)Nc2ccccc2N)cc1,6.58 µM
5,C[C@]12CC[C@H](O)C[C@H]1CC[C@@H]1C2CC[C@]2(C)[C@@H](C3=CC(=O)OC3)[C@@H](O)C[C@]12O (stereo partly drawn),9.35 µM
6,COc1ccc(S(=O)(=O)Nc2ccc3c(c2)C(=O)N([C@H](C)CO)C[C@@H](C)[C@@H](CN(C)Cc2ccc(C(=O)Nc4ccccc4N)cc2)O3)cc1,18.5 µM
7,Cc1cccc(NC(=O)CN2CCN(C(=O)CNC(=O)c3ccc(-c4ccccc4)cc3)CC2)c1C,8.9 µM
8,C[C@@H]1CN([C@@H](C)CO)S(=O)(=O)c2ccc(C#CC(C)(C)O)cc2O[C@H]1CN(C)Cc1ccc(-c2ccccc2)cc1,3.55 µM
9,COc1ccc(/C=C(/C(=O)c2cccs2)N2C=CC=CC2=C(C#N)C#N)cc1,24.6 µM
10,O=C(Nc1ccc(Br)cc1)c1ccc(F)c(S(=O)(=O)N2CCN(c3ccccn3)CC2)c1,18.2 µM
11,Cc1nc2ncccn2c1-c1csc(Nc2ccc(O)cc2)n1,4.74 µM
12,C[C@@H]1CN([C@@H](C)CO)C(=O)Cc2cc(NC(=O)Nc3ccc(C(F)(F)F)cc3)ccc2O[C@@H]1CN(C)Cc1ccc(C(=O)Nc2ccccc2N)cc1,10.4 µM
13,CC(C)N1C/C(=C/c2ccsc2)C(=O)/C(=C/c2ccsc2)C1,14 µM
14,CCN1C/C(=C/c2ccc(OC)c(O)c2)C(=O)/C(=C/c2ccc(OC)c(O)c2)C1,22.9 µM
15,C#CCOCCOCCOCCNc1nc(N2CCN(C(=O)CCCCCCCCCCNC(=O)Cn3cc(C[C@@H](C)O)nn3)CC2)nc(N2CCN(C(=O)CCCCCCCCCCNC(=O)[C@H](CO)n3cc(CCCSC)nn3)CC2)n1,21.5 µM
16,N=c1ccn2c(n1)O[C@H]1[C@H](O)[C@@H](CO)O[C@H]12,3 µM
17,CCCCCCCN(c1ccccc1)[C@@H]1C[C@H]2CCCC(=O)N3CC[C@@H](C1)[C@@H]23,1.95 µM
18,Oc1c(Cl)cc(Cl)c(Cl)c1Cc1c(O)c(Cl)cc(Cl)c1Cl,3.22 µM
19,CCNC(=O)c1cc2c(c(-c3cccc(-c4cccc(OC)c4)c3)n1)[C@H](CCO)N([S@@](=O)C(C)(C)C)C2,7.43 µM
20,O=c1c2ccccc2nc(/C=C/c2cc(Br)ccc2O)n1CCCO,13.8 µM
21,COCC(=O)Nc1ccc2c(c1)[C@@H]1C[C@@H](CC(=O)NCc3ccc(-c4ccccc4)cc3)O[C@@H](CO)[C@@H]1O2,12.9 µM
22,COc1cccc(-c2cc(NC=O)c3ncc(-c4ccc(C(C)=O)cc4)n3c2)c1,1.78 µM
